Test results from US7465743B2, “Pyrazolo[3,4-b]pyridine compounds, and their use as PDE4 inhibitors” (Glaxo Group Limited, priority 2004, dated 2008).

Assays:
[1] = target: T1, PDE4B (human recombinant) (Homo sapiens, UniProt Q07343); test: Inhibition of PDE4B activity (radioactive SPA assay or IMAP FP assay); format: biochemical; conditions: specific Examples; for Selectivity (PDE4B/PDE5 EMR ratio, not log scale): ratio PDE4B vs PDE5, not log scale; for IC50: one reading or average of ca. 2-6 readings, read-out: PDE4B pIC50 (± about 0.5) (converted)
T1 construct: made in house
T1 sequence (Q07343 1-564 isoform Q07343-2): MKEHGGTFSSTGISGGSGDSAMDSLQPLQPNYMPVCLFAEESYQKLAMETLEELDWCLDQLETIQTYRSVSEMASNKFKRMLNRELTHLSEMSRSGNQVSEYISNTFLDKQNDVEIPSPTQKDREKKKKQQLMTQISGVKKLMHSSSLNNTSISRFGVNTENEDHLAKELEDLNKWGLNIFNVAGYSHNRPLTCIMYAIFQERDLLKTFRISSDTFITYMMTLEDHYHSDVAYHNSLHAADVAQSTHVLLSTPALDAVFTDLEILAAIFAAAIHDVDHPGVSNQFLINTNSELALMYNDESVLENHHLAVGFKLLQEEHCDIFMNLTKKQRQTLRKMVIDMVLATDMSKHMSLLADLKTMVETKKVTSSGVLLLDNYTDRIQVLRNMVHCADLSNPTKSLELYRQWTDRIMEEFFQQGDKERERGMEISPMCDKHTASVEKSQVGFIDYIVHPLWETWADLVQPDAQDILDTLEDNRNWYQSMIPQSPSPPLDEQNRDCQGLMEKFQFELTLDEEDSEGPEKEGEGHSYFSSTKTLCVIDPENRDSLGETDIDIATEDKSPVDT
Source text: Human recombinant PDE4B, in particular the 2B splice variant thereof (HSPDE4B2B), is disclosed in WO 94/20079 and also M. M. McLaughlin et al., “A low Km, rolipram-sensitive, cAMP-specific phosphodiesterase from human brain: cloning and expression of cDNA, biochemical characterisation of recombinant protein, and tissue distribution of mRNA”, J. Biol. Chem., 1993, 268, 6470-6476. For example, in Example 1 of WO 94/20079, human recombinant PDE4B is described as being expressed in the PDE-deficient yeast Saccharomyces cerevisiae strain GL62, e.g. after induction by addition of 150 uM CuSO4, and 100,000×g supernatant fractions of yeast cell lysates are described for use in the harvesting of PDE4B enzyme.
(§1) Inhibition of PDE 3, PDE 4B, PDE 4D, PDE 5 or PDE 6 Activity: Radioactive Scintillation Proximity Assay (SPA)
(§2) The ability of compounds to inhibit catalytic activity at PDE4B or 4D (human recombinant), PDE3 (from bovine aorta), PDE5 (human recombinant) or PDE6 (from bovine retina) is determined by Scintillation Proximity Assay (SPA) in 96-well format. Test compounds (as a solution in DMSO, preferably about 2 microliter (ul) volume of DMSO solution) are preincubated at ambient temperature (room temperature, e.g. 19-23° C.) in Wallac Isoplates (code 1450-514) with PDE enzyme in 50 mM Tris-HCl buffer pH 7.5, 8.3 mM MgCl2, 1.7 mM EGTA, 0.05% (w/v) bovine serum albumin for 10-30 minutes (usually 30 minutes). The enzyme concentration is adjusted so that no more than 20% hydrolysis of the substrate defined below occurs in control wells without compound, during the incubation. For the PDE3, PDE4B and PDE4D assays, [5′,8-^3H]Adenosine 3′,5′-cyclic phosphate (Amersham Pharmacia Biotech, code TRK.559; or Amersham Biosciences UK Ltd, Pollards Wood, Chalfont St Giles, Buckinghamshire HP8 4SP, UK) is added to give 0.05 uCi per well and ˜10 nM final concentration. For the PDE5 and PDE6 assays, [8-^3H]Guanosine 3′,5′-cyclic phosphate (Amersham Pharmacia Biotech, code TRK.392) is added to give 0.05 uCi per well and ˜36 nM final concentration. Plates containing assay mixture, preferably approx. 100 ul volume of assay mixture, are mixed on an orbital shaker for 5 minutes and incubated at ambient temperature for 1 hour. Phosphodiesterase SPA beads (Amersham Pharmacia Biotech, code RPNQ 0150) are added (˜1 mg per well) to terminate the assay. Plates are sealed and shaken and allowed to stand at ambient temperature for 35 minutes to 1 hour (preferably 35 minutes) to allow the beads to settle. Bound radioactive product is measured using a WALLAC TRILUX 1450 Microbeta scintillation counter. For inhibition curves, 10 concentrations (1.5 nM-30 uM) of each compound are assayed. Curves are analysed using ActivityBase and XLfit (ID Business Solutions Limited, 2 Ocean Court, Surrey Research Park, Guildford, Surrey GU2 7QB, United Kingdom) Results are expressed as pIC50 values.
Inhibition of PDE4B or PDE4D Activity: Fluorescence Polarisation (FP) Assay
The ability of compounds to inhibit catalytic activity at PDE4B (human recombinant) or PDE4D (human recombinant) is determined by IMAP Fluorescence Polarisation (FP) assay (IMAP Explorer kit, available from Molecular Devices Corporation, Sunnydale, Calif., USA; Molecular Devices code: R8062) in 384-well format. The IMAP FP assay is able to measure PDE activity in an homogenous, non-radioactive assay format. The FP assay uses the ability of immobilised trivalent metal cations, coated onto nanoparticles (tiny beads), to bind the phosphate group of Fl-AMP that is produced on the hydrolysis of fluorescein-labelled (Fl) cyclic adenosine mono-phosphate (Fl-cAMP) to the non-cyclic Fl-AMP form. […] Binding of Fl-AMP product to the beads (coated with the immobilised trivalent cations) slows the rotation of the bound Fl-AMP and leads to an increase in the fluorescence polarisation ratio of parallel to perpendicular light. Inhibition of the PDE reduces/inhibits this signal increase. […]

PDE5 (human recombinant) = PDE5 (human recombinant) (Homo sapiens, UniProt O76074); test: Inhibition of PDE5 activity (radioactive SPA assay); format: biochemical; conditions: specific Examples; one reading or average of ca. 2-6 readings; read-out: PDE5 pIC50 (± about 0.5) (converted)
Source text: Human recombinant PDE5 is disclosed in K. Loughney et al., “Isolation and characterisation of cDNAs encoding PDE5A, a human cGMP-binding, cGMP-specific 3′,5′-cyclic nucleotide phosphodiesterase”, Gene, 1998, 216, 139-147.
as §1, §2
Biological Data obtained for some of the Examples (PDE4B and/or PDE5 inhibitory activity, either as one reading or as an average of ca. 2-6 readings) are as follows, based on current measurements only. In each of the SPA and FP assays, absolute accuracy of measurement is not possible, and the readings given are accurate only up to about ±0.5 of a log unit, depending on the number of readings made and averaged: […]

[2] = system: conscious ferret (emesis); test: In Vivo Assay 4: emetic episodes in the conscious ferret after oral PDE4 inhibitor; therapeutic index; design: species or system ferret (Mustela Pulorius Furo); conditions: p.o.
Method: (§3) In Vivo Assay 4. Evaluation of Therapeutic Index of Orally-administered PDE 4 inhibitors in the conscious ferret
(§4) PDE4 inhibitors are prepared for oral (p.o.) administration by dissolving in a fixed volume (1 ml) of acetone and then adding cremophor to 20% of the final volume. Acetone is evaporated by directing a flow of nitrogen gas onto the solution. Once the acetone is removed, the solution is made up to final volume with distilled water. LPS is dissolved in phosphate buffered saline.
Male ferrets (Mustela Pulorius Furo, weighing 1-2 kg) are transported and allowed to acclimatise for not less than 7 days. […]
(§5) PDE4 inhibitors are administered orally (p.o.), using a dose volume of 1 ml/kg. […] The animals are constantly observed and any emetic episodes (retching and vomiting) or behavioural changes are recorded. […]
(§6) Thirty minutes after oral dosing with compound or vehicle control, the ferrets are placed into sealed perspex containers and exposed to an aerosol of LPS (30 μg/ml) for 10 minutes. […] All emetic episodes and behavioural changes are recorded.
b) Emetic episodes—the number of vomits and retches are counted to determine the dose of PDE4 inhibitor that gives a 20% incidence of emesis (D20).
c) A therapeutic index (TI), using this assay, is then calculated for each PDE4 inhibitor using the following equation: […]

[3] = system: LPS-induced pulmonary neutrophilia; test: In Vivo Assay 4: LPS-induced pulmonary neutrophilia in the conscious ferret; design: species or system ferret (Mustela Pulorius Furo); conditions: p.o.
Method: as §3, §4
Male ferrets (Mustela Pulorius Furo, weighing 1-2 kg) are transported and allowed to acclimatise for not less than 7 days. The diet comprises SDS diet C pelleted food given ad lib with Whiskers™ cat food given 3 times per week. […]
as §5, §6
Six hours after LPS exposure the animals are killed by overdose of sodium pentobarbitone administered intraperitoneally. […] From this, the total number of neutrophils in the BAL sample is determined. […]

SMILES | Selectivity (PDE4B/PDE5 EMR ratio, not log scale) [1] | IC50 [1] | IC50 (PDE5 (human recombinant)) | D20 for emesis (dose that gives a 20% incidence of emesis) [2] | D50 for ferret neutrophilia (dose which gives 50% inhibition of LPS-induced pulmonary neutrophilia) [3]
CCCCNC(=O)c1cnc2c(cnn2CC)c1NCCCC [4-butylamino-1-ethyl-pyrazolo[3,4-b]pyridine-5-(N-butyl)carboxamide, reference compound] | 2 | 158 nM | 398 nM | – | –
CCC(C)Nc1c(C(=O)Nc2ccccc2)cnc2c1cnn2C(C)C (stereo not drawn) [Comparative Example 61, reference compound] | 21 | 200 nM | 5010 nM | – | –
CCn1ncc2c(N[C@H](C)C(C)C)c(C(=O)NCc3ccccc3)cnc21 [Example 1, N-Benzyl-4-{[(1R)-1,2-dimethylpropyl]amino}-1-ethyl-1H-pyrazolo[3,4-b]pyridine-5-carboxamide] | 66 | 15.8 nM | 1000 nM | – | –
CCn1ncc2c(N[C@H](C)C(C)C)c(C(=O)Nc3ccc(F)cc3)cnc21 [Example 2, 4-{[(1R)-1,2-Dimethylpropyl]amino}-1-ethyl-N-(4-fluorophenyl)-1H-pyrazolo[3,4-b]pyridine-5-carboxamide] | 135 | 63.1 nM | 7940 nM | – | –
CCn1ncc2c(N[C@@H](C)C(C)C)c(C(=O)NCc3ccccc3)cnc21 [Example 38, N-Benzyl-4-{[(1S)-1,2-dimethylpropyl]amino}-1-ethyl-1H-pyrazolo[3,4-b]pyridine-5-carboxamide] | 501 | 20 nM | 10000 nM | – | –
CCn1ncc2c(N[C@@H](C)C(C)C)c(C(=O)Nc3ccc(F)cc3)cnc21 [Example 39, 4-{[(1S)-1,2-Dimethylpropyl]amino}-1-ethyl-N-(4-fluorophenyl)-1H-pyrazolo[3,4-b]pyridine-5-carboxamide] | ≧468 | 63.1 nM | > 30200 nM | – | –
CCC(CC)CNC(=O)c1cnc2c(cnn2CC)c1N[C@@H](C)C(C)C [Example 51, 4-{[(1S)-1,2-Dimethylpropyl]amino}-1-ethyl-N-(2-ethylbutyl)-1H-pyrazolo[3,4-b]pyridine-5-carboxamide] | 437 | 7.94 nM | 3980 nM | – | –
CCn1ncc2c(NC(C)(C)C)c(C(=O)NCc3ccccc3)cnc21 [Example 53, 4-(tert-Butylamino)-1-ethyl-N-benzyl-1H-pyrazolo[3,4-b]pyridine-5-carboxamide] | 240 | 15.8 nM | 3980 nM | – | –
CCn1ncc2c(NC(C)(C)C)c(C(=O)Nc3ccc(F)cc3)cnc21 [Example 54, 4-(tert-Butylamino)-1-ethyl-N-(4-fluorophenyl)-1H-pyrazolo[3,4-b]pyridine-5-carboxamide] | ≧309 | 100 nM | > 30200 nM | – | –
CC[C@@H](C)Nc1c(C(=O)NCc2ccccc2)cnc2c1cnn2CC [compound 58, reference compound] | – | 15.8 to 63.1 nM | 631 to 3160 nM | – | –
CC[C@H](C)Nc1c(C(=O)NCc2ccccc2)cnc2c1cnn2CC [compound 59, reference compound] | – | 15.8 to 63.1 nM | 631 to 3160 nM | – | –
O=C(Nc1c(Cl)cncc1Cl)c1ccc(OC(F)F)c(OCC2CC2)c1 [roflumilast] | – | – | – | about 0.46 mg/kg | about 0.42 mg/kg
